Measurements published in patent US9447075B2, “Pyridazine derivatives as EAAT2 activators” (The Brigham and Women's Hospital, Inc., priority 2011, dated 2016).
Where two headings read alike, the source gives them in different places.

Key:
[1] = Maximum tolerated dose / tolerability study; format: in vivo; details: male, C57BL/6, mouse, in vivo, ip; five-day repeat-dose i.p., highest dose tested; read-out: 5-day no observed adverse effect level (NOAEL)
Description: (§1) We determined maximum tolerated dose (MTD) of Compound 212320 in male C57BL/6 mice. The study was conducted in two phases: (I) a single dose tolerability study tested at the doses of 10, 25, 50, and 75 mg/kg i.p. (3 mice/dose) and (II) a five-day repeat-dose tolerability study tested at the doses of 10, 25, 50, and 100 mg/kg i.p. (5 mice/dose). […] In the repeat-dose study, body weights were determined prior to each dose and prior to termination on day 6. Clinical pathologies including standard hematology, serum chemistry and coagulation parameters were evaluated on samples collected on day 6. All animals from phase II were necropsied, and selected organs were weighed. […] Due to lack of toxicity, the highest dose tested, 100 mg/kg/day, was determined to be the 5-day no observed adverse effect level (NOAEL) for Compound 212320.

male C57BL/6 mice = assay: Maximum tolerated dose / tolerability study; format: in vivo; details: single dose 10-75 mg/kg and five-day repeat dose 10-100 mg/kg i.p.
Description: as §1

[2] = system: All other targets (seventy-one targets tested); assay: In vitro side effect profiling: all other of seventy-one targets; details: 10 μM, duplicate
Description: (§2) To assess Compound 212320's biological activity and selectivity, we performed an in vitro side effect profiling study. Seventy-one targets were tested at 10 μM in duplicate. These targets include neurotransmitter related receptors (30), steroids (2), ion channels (6), second messenger (1), prostaglandins (3), growth factors/hormones (4), brain/gut peptides (13), enzymes (5) and cytochrome p450 (7). […] Additionally, we performed a protein kinase profiling study. Compound 212320 was tested at 1 and 10 μM against 288 kinases. […] These studies indicate that Compound 212320 has high specificity and low side-effects/toxicity potential.

[3] = system: primary dissociated neuron and astrocyte mixed cultures; assay: Glutamate-induced excitotoxicity in primary neuron and astrocyte mixed cultures (LDH assay, MAP2 immunostaining); format: cell-based; details: for MAP2-positive neurons left compared to the control: 0.1 mM glutamate
EAAT2 mRNA = assay: Quantitative real-time RT-PCR of EAAT2 mRNA in PA-EAAT2 cells; format: cell-based, human; details: PA-EAAT2 cells (FIG. 6F)
Description: (§3) Characterization and efficacy studies of a compound, Compound 212320 (FIG. 6A) is shown. […] In the absence of serum, PA-EAAT2 cells express low amounts of EAAT2 protein, although the recombinant EAAT2 mRNA are expressed (translational silencing); however, EAAT2 protein levels are increased when an activator is added to the culture (translational activation). This cell line was used for high-throughput screening to identify EAAT2 translational activators. To prioritize candidate compounds, we initially evaluated activation of EAAT2 protein in PA-EAAT2 cells. Promising compounds were further evaluated in primary dissociated neuron and astrocyte mixed cultures and then in mice. FIG. 6 presents the characterization of Compound 212320 in PA-EAAT2 cells. Compound 212320 increased EAAT2 protein levels in a dose—(FIG. 6B) and time—(FIG. 6C) dependent manner. Importantly, the induction occurred in a short amount of time (within 1-2 hr) and was sustained even up to 72 hr (data not show). Additionally, induction occurred at low nanomolar concentrations. […] (FIG. 6D).

[4] = system: All other kinases (288 kinases tested); assay: Protein kinase profiling: all other of 288 kinases; format: biochemical; details: 1 and 10 μM
Description: as §2

EphA4 = EphA4 (Homo sapiens, UniProt P54764); assay: Protein kinase profiling: EphA4; format: biochemical; details: read-out: EphA4 inhibited
EphA4, sequence (P54764 20-986, species assumed): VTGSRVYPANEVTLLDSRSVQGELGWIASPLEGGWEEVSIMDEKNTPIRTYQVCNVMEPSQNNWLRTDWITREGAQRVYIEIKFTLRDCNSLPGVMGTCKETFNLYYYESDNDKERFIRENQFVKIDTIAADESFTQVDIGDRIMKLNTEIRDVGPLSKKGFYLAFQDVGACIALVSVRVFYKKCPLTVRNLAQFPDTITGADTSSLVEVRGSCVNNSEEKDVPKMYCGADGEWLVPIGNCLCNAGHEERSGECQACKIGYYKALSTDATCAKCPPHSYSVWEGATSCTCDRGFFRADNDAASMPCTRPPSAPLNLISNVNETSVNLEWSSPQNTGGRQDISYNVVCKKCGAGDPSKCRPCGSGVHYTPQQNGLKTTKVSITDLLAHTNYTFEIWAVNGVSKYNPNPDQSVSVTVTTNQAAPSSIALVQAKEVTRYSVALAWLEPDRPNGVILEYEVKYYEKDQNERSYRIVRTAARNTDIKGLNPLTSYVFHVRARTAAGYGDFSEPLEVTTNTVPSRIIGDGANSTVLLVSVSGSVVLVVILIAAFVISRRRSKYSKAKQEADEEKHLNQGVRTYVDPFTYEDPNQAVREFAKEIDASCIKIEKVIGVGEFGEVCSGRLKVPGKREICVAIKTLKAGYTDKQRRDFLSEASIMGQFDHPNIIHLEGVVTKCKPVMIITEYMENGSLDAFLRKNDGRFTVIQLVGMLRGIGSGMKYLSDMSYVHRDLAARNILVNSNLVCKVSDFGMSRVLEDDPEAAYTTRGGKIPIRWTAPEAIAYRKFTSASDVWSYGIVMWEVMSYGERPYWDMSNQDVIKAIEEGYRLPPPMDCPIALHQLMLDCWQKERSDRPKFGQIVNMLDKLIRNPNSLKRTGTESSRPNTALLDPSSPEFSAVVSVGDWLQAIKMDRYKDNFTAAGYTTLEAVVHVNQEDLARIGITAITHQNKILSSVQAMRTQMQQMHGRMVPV
Description: as §2

EAAT2 = EAAT2 protein levels in PA-EAAT2 cells by Western blot; format: cell-based, human
Description: All of the derivates of 1 were initially evaluated in PA-EAAT2 cells^3 (a primary astrocyte line stably expressing EAAT2 mRNAs) following compound (10 μM) incubation for 4 and 24 h before harvesting and measuring EAAT2 levels by Western blot analysis. The fold increases in EAAT2 protein levels relative to DMSO controls are reported (Tables 1-4).
as §3

[5] = system: APPSw/Ind transgenic mice; assay: Alzheimer's disease model, Y-maze test; format: in vivo, mouse; details: 40 mg/kg i.p. daily for 10 days, 7-month-old mice
Description: Compound 212320 was evaluated in APPSw/Ind transgenic mice, an Alzheimer's disease model. […] 7-month-old mice were treated with 40 mg/kg of Compound 212320 by intraperitoneal injection daily for 10 days and then evaluated the effects on short-term memory by Y-maze test. Compound 212320 restored short-term memory loss in APP mice after 10-day treatment (23 wild-type mice, 21 APP mice).
APPSw/Ind transgenic mice were treated with Compound 212320 at 40 mg/kg or vehicle intraperiotoneally beginning at 7 months after symptoms of memory loss are apparent. After daily treatment for 10 days, Y-maze was used to measure effects on short-term memory.

[6] = In vivo pharmacokinetic evaluation in male C57Bl/6 mice (LCMS/MS); design: species or system mouse; details: ip, single i.p. 3 mg/kg; for half-life: estimated
Description: Compound 212320 is compliant with Lipinski rules and lacks functionality that would predict overt toxicity or reactivity. This compound has a low molecular weight (293.38), cLogP value (3.28) and polar surface area (PSA) value (37.08 Å2) in the range typical of compounds that can penetrate the blood brain barrier. We conducted in vivo pharmacokinetic evaluation of LDN 212320 in male C57Bl/6 mice. After a single intraperitoneal (i.p.) administration of Compound 212320 (3 mg/kg), the plasma and brain concentrations were determined over an 8 hr period by LCMS/MS (FIG. 8A). […] The plasma and brain half-lives were estimated to be 2.63 and 2.64 hr, respectively. The average brain-to-plasma ratio was approximately 2 at all time points tested.

calcium channel L-type = assay: In vitro side effect profiling: calcium channel L-type; format: binding; details: 10 μM, duplicate
Description: as §2

In the case of `Cc1ccccc1CSc1ccc(-c2ccccn2)nn1` [Compound 7-4], the NOAEL at 5 day [1] is reported as 100 mg/kg/day, the “Clinical signs of toxicity, clinical pathology, body weight” value (male C57BL/6 mice) is reported as “no clinical signs of toxicity” and the “inhibition, all other targets” value [2] is reported as < 30%. For the same molecule, the “Neuronal loss and degeneration (MAP2 immunostaining)” value ([3]; FIG. 7D) was “significantly prevented”, the “Toxicity in all assays” value ([3]; cell culture assays) was “did not cause any detectable toxicity” and the “Glutamate-induced cytotoxicity (LDH assay)” value ([3]; glutamate for 2 hr (FIG. 7C)) was “significantly reduced”. The “MAP2-positive neurons left compared to the control” value ([3]; pretreatment at 2 μM) was 40.4±6.4%, the “MAP2-positive neurons left compared to the control” value ([3]; pretreatment at 3 μM) was 60.9±7.3% and the “Protective effects after pretreatment with dihydrokainic acid (DHK), an EAAT2 blocker” value ([3]; with DHK pretreatment) was “partially abolished”. For the same molecule, the “EAAT2 mRNA levels” value (EAAT2 mRNA) was “not changed”, the “Activity on all other kinases tested” value [4] was “insignificant activity” and the inhibition at 10 µM (EphA4) was 44%. For the same molecule, the “Concentrations at which EAAT2 induction occurred” value (EAAT2; PA-EAAT2 cells) was “low nanomolar”, the “Time in which EAAT2 induction occurred” value (EAAT2; PA-EAAT2 cells) was 1 to 2 h and the “Time up to which EAAT2 induction was sustained” value (EAAT2; PA-EAAT2 cells, data not shown) was “up to 72 hr”. The EAAT2 protein levels (EAAT2; PA-EAAT2 cells, dose- and time-dependent manner (FIG. 6B, 6C)) was “increased”, the “Fold increase for EAAT2, 4 h” value (EAAT2; compound 10 μM, 4 h incubation, PA-EAAT2 cells, relative to DMSO controls, na = not active) was 1.7 ± 0.1 fold and the “Fold increase for EAAT2, 24 h” value (EAAT2; compound 10 μM, 24 h incubation, PA-EAAT2 cells, relative to DMSO controls, na = not active) was 3.5 ± 0.3 fold. For the same molecule, the “SAR comparison of activity on EAAT2 protein levels, in words” value (EAAT2; relative to parent/comparator analogue, Tables 1-4) was “increased potency”, the “Short-term memory loss (Y-maze test)” value [5] was “restored” and the Kp ([6]; male, C57Bl/6, mouse, brain, all time points tested, read-out: average brain-to-plasma ratio) was ~2. For the same molecule, the half-life ([6]; male, C57Bl/6, mouse, brain, read-out: Brain half-life (converted)) was 2.64 h, the half-life ([6]; male, C57Bl/6, mouse, plasma, read-out: Plasma half-life (converted)) was 2.63 h and the Cmax ([6]; mouse, in vivo, male C57Bl/6 mice) was 42.1 ± 3.6 ng/mL. For the same molecule, the “inhibition on calcium channel L-type” value (calcium channel L-type) was 43%.
